The values that follow come from US7851474B2, “Dipiperazinyl ketones and related analogues” (Neurogen Corporation, priority 2005, dated 2010).

This experiment deals with T1, chimeric human H3 receptor (Homo sapiens, UniProt Q9Y5N1, E19D).
T1 construct: made in house; host or cells: Sf9 insect cells (baculovirus infection); P2 membrane preparation
Kind of experiment: Chimeric human H3 receptor GTP binding assay (agonist-stimulated GTP-gamma35S binding, Example 7). In kind it is biochemical. Summed up: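 IC50 values come from non-linear regression of dose-response curves of filter-bound GTP-gamma^35S, counted by scintillation. Membranes were from infected Sf9 cells carrying receptor plus G-protein subunits, 35 μg/tube, with 10 μM GDP present.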
On the technique in general: GTPγS is a poorly hydrolysed GTP analogue; its binding reports G protein activation.

The mark [1] stands for this setting: assay of Example 7, "*" in Ki of Table II, read-out: Ki.
Setting [2] is: Table II "Ki", symbol "*": Ki in the assay of Example 7, read-out: Ki.
[3] abbreviates: assay of Example 7, symbol * in column headed Ki of Table II, read-out: Ki.
The mark [4] stands for this setting: Table II, assay of Example 7, "*" in Ki, read-out: Ki.
Where [5] appears, read: Table II, "*" in Ki, assay of Example 7, read-out: Ki.
The mark [6] stands for this setting: "*" in Ki of Table II, assay of Example 7, read-out: Ki.

Molecules are shown by their SMILES. Read-outs that look alike come from different tables or passages of the source.

The term Ki denotes a dissociation constant, usually derived from enzyme kinetics or from competition with a known ligand.

T1 sequence (Q9Y5N1 with tags, fused parts or gaps E19D): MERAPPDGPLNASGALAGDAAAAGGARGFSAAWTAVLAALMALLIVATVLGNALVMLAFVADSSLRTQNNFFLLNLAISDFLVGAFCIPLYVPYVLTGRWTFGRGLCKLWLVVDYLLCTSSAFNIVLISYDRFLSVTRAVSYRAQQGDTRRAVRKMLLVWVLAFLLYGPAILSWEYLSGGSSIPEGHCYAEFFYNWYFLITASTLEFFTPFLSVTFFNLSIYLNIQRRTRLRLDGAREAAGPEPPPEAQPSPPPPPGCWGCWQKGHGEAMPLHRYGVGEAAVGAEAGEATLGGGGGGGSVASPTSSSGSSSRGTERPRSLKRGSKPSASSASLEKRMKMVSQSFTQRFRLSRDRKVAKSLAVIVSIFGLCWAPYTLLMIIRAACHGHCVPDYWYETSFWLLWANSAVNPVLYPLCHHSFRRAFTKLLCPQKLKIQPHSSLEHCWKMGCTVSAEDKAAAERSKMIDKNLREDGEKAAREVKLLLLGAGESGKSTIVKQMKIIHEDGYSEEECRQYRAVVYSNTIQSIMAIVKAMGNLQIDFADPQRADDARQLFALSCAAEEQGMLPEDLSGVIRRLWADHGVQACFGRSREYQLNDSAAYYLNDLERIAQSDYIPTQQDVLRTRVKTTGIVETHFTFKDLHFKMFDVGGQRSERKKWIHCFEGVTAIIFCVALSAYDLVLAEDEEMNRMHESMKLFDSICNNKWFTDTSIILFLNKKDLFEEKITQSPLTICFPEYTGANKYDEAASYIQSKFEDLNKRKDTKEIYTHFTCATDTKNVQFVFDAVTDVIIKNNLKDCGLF

In the case of `CC(C)(C)CNC(=O)c1ccc(N2CCN(CC(=O)N3CCN(C4CCC4)CC3)CC2)cc1` [Compound 1145, 4-{4-[2-(4-cyclobutylpiperazin-1-yl)-2-oxoethyl]piperazin-1-yl}-N-(2,2-dimethylpropyl) benzamide], the Ki under setting [1] was less than 1000 nM.

Consider `CCN(C(=O)c1ccc(N2CCN(CC(=O)N3CCN(C4CCC4)CC3)CC2)nc1)C(C)C` [Compound 1168, 6-{4-[2-(4-cyclobutylpiperazin-1-yl)-2-oxoethyl]piperazin-1-yl}-N-ethyl-N-isopropylnicotinamide], for which the Ki under setting [1] was less than 1000 nM.

Consider `CCC(C)N1CCN(C(=O)CN2CCN(c3cc(C)ccc3C)CC2)CC1` (stereo not drawn) [Compound 864, 1-sec-butyl-4-{[4-(2,5-dimethylphenyl)piperazin-1-yl]acetyl}piperazine], for which the Ki under setting [2] was less than 1000 nM.

In the case of `COc1ccc(C(=O)NC2CCN(CC(=O)N3CCN(C4CCC4)CC3)C2)cc1F` (stereo not drawn) [Compound 1243, N-{1-[2-(4-cyclobutylpiperazin-1-yl)-2-oxoethyl]pyrrolidin-3-yl}-3-fluoro-4-methoxybenzamide], the Ki under setting [1] was less than 1000 nM.

For `CCCN(CCC)C1CCN(CC(=O)N2CCN(C3CCCCC3)CC2)CC1` [Compound 441, 1-[2-(4-cyclohexylpiperazin-1-yl)-2-oxoethyl]-N,N-dipropylpiperidin-4-amine], the Ki under setting [3] was less than 1000 nM.

Take `O=C(CN1CCN(c2ccc(-c3ccc(Cl)cc3)cc2)CC1)N1CCN(C2CCC2)CC1` [Compound 355, 1-(4′-chlorobiphenyl-4-yl)-4-[2-(4-cyclobutylpiperazin-1-yl)-2-oxoethyl]piperazine]: the Ki under setting [3] was less than 1000 nM.

As to `COc1ccc(C(C)C)cc1-c1cnc(N2CCN(CC(=O)N3CCN(C4CCC4)CC3)CC2)cn1` [Compound 952, 2-{4-[2-(4-cyclobutylpiperazin-1-yl)-2-oxoethyl]piperazin-1-yl}-5-(5-isopropyl-2-methoxyphenyl)pyrazine], the Ki under setting [4] was less than 1000 nM.

On to `CC(=O)c1ccc(-c2cccc(N3CCN(CC(=O)N4CCN(C5CCC5)CC4)CC3)c2)cc1` [Compound 288, 1-(3′-{4-[2-(4-cyclobutylpiperazin-1-yl)-2-oxoethyl]piperazin-1-yl}biphenyl-4-yl)ethanone], for which the Ki under setting [3] was less than 1000 nM.

For `O=C(CN1CCN(c2ccc(-c3cc(F)cc(F)c3)cc2)CC1)N1CCN(C2CCC2)CC1` [Compound 740, 1-cyclobutyl-4-{[4-(3′,5′-difluorobiphenyl-4-yl)piperazin-1-yl]acetyl}piperazine], under setting [5], the Ki was less than 1000 nM.

With `CCC(C)NC(=O)c1ccc(N2CCN(CC(=O)N3CCN(C4CCC4)CC3)CC2)cc1` (stereo not drawn) [Compound 1204, N-(sec-butyl)-4-{4-[2-(4-cyclobutylpiperazin-1-yl)-2-oxoethyl]piperazin-1-yl}benzamide], the Ki under setting [1] was less than 1000 nM.

In the case of `CC1CCCN1C(=O)c1cccc(N2CCN(CC(=O)N3CCN(C4CCC4)CC3)CC2)c1` (stereo not drawn) [Compound 640, 1-cyclobutyl-4-[(4-{3-[(2-methylpyrrolidin-1-yl)carbonyl]phenyl}piperazin-1-yl)acetyl]piperazine], the Ki under setting [5] is less than 1000 nM.

Consider `CCC(C)N1CCN(C(=O)CN2CCN(c3ccc(C)cc3)CC2)CC1` (stereo not drawn) [Compound 882, 1-sec-butyl-4-{[4-(4-methylphenyl)piperazin-1-yl]acetyl}piperazine], for which the Ki under setting [2] is less than 1000 nM.

On to `CCC(C)N1CCN(C(=O)CN2CCC(N3CCCCC3)CC2)CC1` (stereo not drawn) [Compound 447], for which, under setting [6], the Ki is less than 1000 nM.

For the molecule `CCC(C)N1CCN(C(=O)CN2CCN(c3c(C)cccc3C)CC2)CC1` (stereo not drawn) [Compound 865, 1-sec-butyl-4-{[4-(2,6-dimethylphenyl)piperazin-1-yl]acetyl}piperazine], the Ki under setting [2] was less than 1000 nM.

`O=C(CN1CCN(c2ccc(-c3cccc4c3oc3ccccc34)nn2)CC1)N1CCN(C2CCC2)CC1` [Compound 1044, 3-{4-[2-(4-cyclobutylpiperazin-1-yl)-2-oxoethyl]piperazin-1-yl}-6-dibenzo[b,d]furan-4-ylpyridazine]: the Ki under setting [4] was less than 1000 nM.

As to `CC(C)c1ccccc1-c1ccc(N2CCN(CC(=O)N3CCN(C4CCC4)CC3)CC2)nn1` [Compound 1058, 3-{4-[2-(4-cyclobutylpiperazin-1-yl)-2-oxoethyl]piperazin-1-yl}-6-(2-isopropylphenyl) pyridazine], the Ki under setting [4] was less than 1000 nM.

For the molecule `O=C(CN1CCN(c2ccc(-c3ccccc3C(F)(F)F)nn2)CC1)N1CCN(C2CCC2)CC1` [Compound 1056, 3-{4-[2-(4-cyclobutylpiperazin-1-yl)-2-oxoethyl]piperazin-1-yl}-6-[2-(trifluoromethyl)phenyl] pyridazine], under setting [4], the Ki was less than 1000 nM.

As for `O=C(CN1CCN(c2ccc(-c3cccc(C(F)(F)F)c3)nn2)CC1)N1CCN(C2CCC2)CC1` [Compound 1063, 3-{4-[2-(4-cyclobutylpiperazin-1-yl)-2-oxoethyl]piperazin-1-yl}-6-[3-(trifluoromethyl)phenyl] pyridazine], the Ki under setting [4] is less than 1000 nM.

As for `CC(Oc1ccccc1Cl)C(=O)N1CCN(CC(=O)N2CCN(C3CCC3)CC2)CC1` (stereo not drawn) [Compound 417, 1-[2-(2-chlorophenoxy)propanoyl]-4-[2-(4-cyclobutylpiperazin-1-yl)-2-oxoethyl]piperazine], under setting [3], the Ki is less than 1000 nM.

As to `CC(=O)c1cccc(-c2cnc(N3CCN(CC(=O)N4CCN(C5CCC5)CC4)CC3)cn2)c1` [Compound 454, 1-[3-(5-{4-[2-(4-cyclobutylpiperazin-1-yl)-2-oxoethyl]piperazin-1-yl}pyrazin-2-yl}phenyl]ethanone], under setting [6], the Ki was less than 1000 nM.

`O=C(CN1CCN(c2ccc(C(=O)N3CC[C@@H]4CCCC[C@@H]4C3)cc2)CC1)N1CCN(C2CCC2)CC1` [Compound 255, (4aS,8aS)-2-(4-{4-[2-(4-cyclobutylpiperazin-1-yl)-2-oxoethyl]piperazin-1-yl}benzoyl) decahydroisoquinoline]: the Ki under setting [3] is less than 1000 nM.

For `CC(C)CCC(=O)NC1CCN(CC(=O)N2CCN(C3CCC3)CC2)C1` (stereo not drawn) [Compound 1247, N-{1-[2-(4-cyclobutylpiperazin-1-yl)-2-oxoethyl]pyrrolidin-3-yl}-4-methylpentanamide], the Ki under setting [1] was less than 1000 nM.

In the case of `O=C(CN1CCN(c2cccc(Cl)c2Cl)CC1)N1CCN(C2CCCC2)CC1` [Compound 831, 1-cyclopentyl-4-{[4-(2,3-dichlorophenyl)piperazin-1-yl]acetyl}piperazine], the Ki under setting [2] is less than 1000 nM.

With `O=C(NC1CCCCC1)c1cccc(N2CCN(CC(=O)N3CCN(C4CCC4)CC3)CC2)c1` [Compound 1079, 3-{4-[2-(4-cyclobutylpiperazin-1-yl)-2-oxoethyl]piperazin-1-yl}-N-cyclohexylbenzamide], the Ki under setting [4] is less than 1000 nM.

As to `CCOc1ccc(-c2ccc(N3CCN(CC(=O)N4CCN(C5CCC5)CC4)CC3)cc2)cc1` [Compound 769, 1-cyclobutyl-4-{[4-(4′-ethoxybiphenyl-4-yl)piperazin-1-yl]acetyl}piperazine], the Ki under setting [5] was less than 1000 nM.

As to `CCC(C)N1CCN(C(=O)CN2CCN(c3ccc(OC)cc3OC)CC2)CC1` (stereo not drawn) [Compound 862, 1-sec-butyl-4-{[4-(2,4-dimethoxyphenyl)piperazin-1-yl]acetyl}piperazine], the Ki under setting [2] was less than 1000 nM.

For `CC1CCN(C2CCN(CC(=O)N3CCN(C4CCC4)CC3)CC2)CC1` [Compound 428, 1′-[2-(4-cyclobutylpiperazin-1-yl)-2-oxoethyl]-4-methyl-1,4′-bipiperidine], under setting [3], the Ki was less than 1000 nM.

For the molecule `O=C(N1CCN(C2CCCC2)CC1)N1CCC2(CC1)C(=O)N(Cc1ccccc1)c1ccccc12` [Compound 489, 1-benzyl-1′-[(4-cyclopentylpiperazin-1-yl)carbonyl]spiro[indole-3,4′-piperidin]-2(1H)-one], the Ki under setting [6] was less than 1000 nM.

With `CCOc1ccc(C(=O)NC2CCN(CC(=O)N3CCN(C4CCC4)CC3)CC2)cc1` [Compound 1221, N-{1-[2-(4-cyclobutylpiperazin-1-yl)-2-oxoethyl]piperidin-4-yl}-4-ethoxybenzamide], the Ki under setting [1] was less than 1000 nM.

With `O=C(CN1CCC(N2CCCC2)CC1)N1CCN(C2CCC2)CC1` [Compound 658, 1-cyclobutyl-4-[(4-pyrrolidin-1-ylpiperidin-1-yl)acetyl]piperazine], under setting [5], the Ki is less than 1000 nM.

Take `CC(=O)c1ccc(N2CCN(CC(=O)N3CCN(C4CCC4)CC3)CC2)cc1C(F)(F)F` [Compound 461, 1-[4-{4-[2-(4-cyclobutylpiperazin-1-yl)-2-oxoethyl]piperazin-1-yl}-2-(trifluoromethyl)phenyl] ethanone]: the Ki under setting [6] was less than 1000 nM.

On to `C=CCN1CCN(C(=O)CN2CCN(c3ccc(C(F)(F)F)cc3)CC2)CC1` [Compound 487, 1-allyl-4-({4-[4-(trifluoromethyl)phenyl]piperazin-1-yl}acetyl)piperazine], for which the inhibition constant (Ki) was less than 1000 nM.

On to `COc1cc(N2CCN(CC(=O)N3CCN(C4CCC4)CC3)CC2)ccc1Cl` [Compound 344, 1-(4-chloro-3-methoxyphenyl)-4-[2-(4-cyclobutylpiperazin-1-yl)-2-oxoethyl]piperazine], for which, under setting [3], the Ki is less than 1000 nM.

On to `COc1ccc(-c2ccc(N3CCN(CC(=O)N4CCN(C5CCC5)CC4)CC3)cc2)cc1OC` [Compound 732, 1-cyclobutyl-4-{[4-(3′,4′-dimethoxybiphenyl-4-yl)piperazin-1-yl]acetyl}piperazine], for which, under setting [5], the Ki was less than 1000 nM.

For the molecule `CCc1ccc(-c2ccc(N3CCN(CC(=O)N4CCN(C5CCC5)CC4)CC3)nn2)cc1` [Compound 1017, 3-{4-[2-(4-cyclobutylpiperazin-1-yl)-2-oxoethyl]piperazin-1-yl}-6-(4-ethylphenyl)pyridazine], the Ki under setting [4] is less than 1000 nM.

Turning to `CC(=O)c1ccc(N2CCN(CC(=O)N3CCN(C4CCCCC4)CC3)CC2)cc1` [Compound 321, 1-(4-{4-[2-(4-cyclohexylpiperazin-1-yl)-2-oxoethyl]piperazin-1-yl}phenyl)ethanone], the Ki under setting [3] was less than 1000 nM.
